Residues, ends and D or L forms follow the SMILES beside them.
Legend:
[1] = tested on: human first-trimester placental explants (CTB)
[2] = tested on: mouse placenta (maternofetal interface); format: in vivo, BALB/c mice; conditions: 200 μg, tail vein, cardiac perfusion
[3] = tested on: human placental explants (syncytiotrophoblast); experiment: Peptide-binding assay with human placental explants; format: cell-based; conditions: peptide 20 μM, 0 to 3 hours

Cys-Gly-Lys-Arg-Lys [CGKRK] was tested, and the “basal rates of CTB proliferation (Ki67)” value [1] was “did not alter”.
With “Cys-Arg-Gly-Asp-Lys-Gly-Pro-Asp-Cys (disulfide) [iRGD]” the “basal rates of CTB proliferation (Ki67)” value [1] was “did not alter” and the “rate of CTB apoptosis (M30)” value [1] was “modestly reduced”.
`N=C(N)NCCC[C@H](NC(=O)[C@H](CCCCN)NC(=O)CNC(=O)[C@H](CS)NC(=O)c1ccc2c(c1)C(=O)OC21c2ccc(O)cc2Oc2cc(O)ccc21)C(=O)N[C@@H](CCCCN)C(=O)O` [FAM-CGKRK] (HELM PEPTIDE1{[O=C1OC2(c3ccc(O)cc3Oc3cc(O)ccc32)c2ccc(C(=O)[*:2])cc21].C.G.K.R.K}$$$$V2.0) was tested, and the “accumulation in maternal organs” value ([2]; pregnant mice, 3 hours, confocal microscopy (fig. S1)) was “do not accumulate in maternal organs of pregnant mice”.
For FAM-ARALPSQRSR [reference compound], the “binding at the murine maternofetal interface” value ([2]; pregnant mice E11.5 to E17.5, 3 hours, fluorescence microscopy, n = 3 placentas from n = 4 mice) was “did not target the maternofetal interface” and the “binding to human placenta (first-trimester and term explants)” value [3] was “did not bind to the syncytium of human placenta or to other cellular components”.
